Legend:
CT26 cells [1] = experiment: Pulmonary metastasis in vivo: CT26 lung tumors in BALB/c mice; parameters: species or system mouse; settings: CT26 via tail vein, 100 mg/kg/d in chow diet for 3 weeks
Procedure: BALB/c mice were intravenously injected with 2×10^4 CT26 cells in 100 μL of PBS via tail vein injection and the mice were treated with bHDL at 10 mg/kg/day administered SQ for 3 weeks; or treated with bHDL at 100 mg/kg/day administered in a chow diet for 3 weeks. After 3 weeks treatment, the mice were sacrificed; lungs were harvested, weighed and fixed with Bouin's solution (Sigma). Tumor nodules on the lung surface were counted.
BALB/c mice were intravenously injected with 2×10^4 CT26 cells in […] of PBS via tail vein injection and the mice were treated with L-4F or sc-4F at 10 mg/kg/d administered subcutaneously for 3 weeks, or treated with sc-4F or L-4F or G* peptide at 100 mg/kg/d administered in a chow diet for 3 weeks. After 3 weeks treatment, the mice were sacrificed; lungs were harvested, weighed, and fixed with Bouin solution (Sigma). Tumor nodules on the lung surface were counted.

[2] = tested on: lysophosphatidic acid (LPA); experiment: Plasma LPA levels in treated mice; format: in vivo, mouse; settings: BALB/c lung tumor mice; 100 mg/kg/d in chow for 3 weeks; vs control mice
Procedure: LPA (20:4) was purchased from Avanti Polar Lipids. LPA levels were determined as described previously (Murph et al., 2007, Methods Enymol 433:1-25).
LPA (20:4) was purchased from Avanti Polar Lipids. LPA levels were determined as described previously (19).

cyclin D1 and cyclin A = experiment: Western blot of cyclin D1 and cyclin A in CT26 cells; format: cell-based, mouse
Procedure: Total cell proteins were collected after treatment in cell lysis buffer containing 0.1 mol/L NaCl, 5 mmol/L EDTA, 50 mmol/L sodium orthovanadate, 1% Triton X-100, and protease inhibitor tablet in 50 mmol/L Tris buffer (pH 7.5). Twenty micrograms of total proteins were separated by SDS-PAGE and transferred onto nitrocellulose membrane and followed by incubation with primary antibody at 4° C. in 5% skim milk and 0.1% Tween-20. Anti-cyclin D1 and anti-cyclin A rabbit polyclonal antibodies were used at 1:1,000 dilution, and anti-b-actin polyclonal antibody was used at 1:2,000 dilution.

CT26 cells [3] = experiment: CT26 cell viability, MTS assay; settings: Example 5; CT26 cells, 10 mg/mL, 48 hours
Procedure: CT26 cell line derived from N-nitroso-N-methyl urethane-induced mouse colon carcinoma of BALB/c origin was purchased from the American Type Culture Collection (ATCC). CT26 cells (2,000 cells per well) were first cultured in complete medium in 96-well culture plates, and 24 hours later the medium was replaced with serum free medium. Following an overnight incubation, the cells were either treated with vehicle (control), or treated with 10 μg/mL of either bHDL. The bHDL were dissolved in H2O. Cells were incubated for an additional 48 hours and assayed for viability using the MTS assays kit (Promega) according to the manufacturer's protocol.
CT26 cell line derived from N-nitroso-N-methyl urethane-induced mouse colon carcinoma of BALB/c origin was purchased from the American Type Culture Collection. CT26 cells (2,000 cells per well) were first cultured in complete medium in 96-well culture plates, and 24 hours later the medium was replaced with serum-free medium. Following an overnight incubation, the cells were either treated with vehicle (control) or treated with 10 mg/mL of either L-4F or G* peptide. The peptides were dissolved in H2O. Cells were incubated for an additional 48 hours and assayed for viability using the MTS assay kit (Promega) according to the manufacturer's protocol.

## Ac-LVGRQLEEFL-NH2 [G* peptide, Ac-L-V-G-R-Q-L-E-E-F-LNH2]
CT26 cells [1]
  lung weights: 250 mg
  tumor numbers on the lung surface: 10
[2]
  plasma LPA levels: significantly reduced
Cyclin D1 and cyclin A
  expression of cyclin D1 and cyclin A: lower
CT26 cells [3]
  Cell viability reduced, compared with control: approximately 40%
